Assay results from US8158606B2, “β-L-2′-deoxynucleosides for the treatment of resistant HBV strains and combination therapies” (priority 2002, dated 2012).

Legend:
[1] = test system: human peripheral blood mononuclear cells (PBMCs), bone marrow progenitor cells and numerous cell lines; experiment: Cytotoxicity of L-dC; assay type: cell-based, human and other non-human mammalian
From the text: (§1) Human DNA polymerases and mitochondrial function were not affected by L-dC in vitro. L-dC was non-cytotoxic to human peripheral blood mononuclear cells (PBMCs), bone marrow progenitor cells and numerous cell lines of human and other non-human mammalian origin.

[2] = in vivo; settings: rhesus monkey, po, 10 mg/kg
Method: (§12) The drug was detected and concentration determined using a reverse-phase HPLC technique. The blood and urine drug level data were analyzed by a non-modeling mathematical method and AUCs derived by the linear trapezoidal rule.

[3] = Single-dose bioavailability of L-dC in the rhesus monkey
Method: as §12

[4] = Single-dose bioavailability of L-dC in the rat; settings: Sprague-Dawley, plasma, 10 mg/kg
Method: (§13) The drug was detected and the concentration determined in plasma and urine using a reverse-phase HPLC technique. The data were analyzed by a non-modeling mathematical method and the AUCs derived by the linear trapezoidal rule.

[5] = Bioavailability of the prodrugs of L-dC; settings: cynomolgus monkey, plasma, po, 10 mg/kg
[6] = test system: M552V mutant HBV, cell line V1/C9; experiment: Antiviral testing in stable HepG2 cell lines, EPA of intracellular nucleocapsids; assay type: cell-based, hepatitis B virus; settings: M552V single mutant
Method: (§2) Recombinant DNA constructs corresponding to these lamivudine-resistant mutants were created by site directed mutagenesis. The test system comprised stable cell lines harboring each of the transfected mutant genomes, as well as a wild-type control HBV genome. The antiviral activity of LdT (telbivudine) and LdC, together with the control drugs lamivudine and PMEA, was determined against the mutant and wild-type HBV genomes in the respective test cell lines.
(§3) Endogenous Polymerase Assay (EPA) of cell lysate: Cells were grown in 12-well collagen plates to 100% confluency for 3-4 days and cytosolic lysates were prepared in 1 ml of 50 mM Tris-HCl pH 7.4, 150 mM NaCl, 5 mM MgCl2, 0.2% NP-40. EPAs were essentially performed as described (Seifer et al., 1998). […] The immobilized capsids were then washed, endogenous polymerase reactions were initiated in 50 ul reaction volume containing 50 mM Tris-HCl pH7.4, 75 mM NH4Cl, 1 mM EDTA, 20 mM MgCl2, 0.1 mM β-ME, 0.5% NP-40, 100 μM cold dGTP, TTP, dCTP, and 50 nM ^33P-dATP (Perkin Elmer Life Sciences Cat# NEG 612H), and incubated overnight at 37° C. Following digestion with 1 mg/ml of Proteinase K (Roche, Cat#1373196) for 1 h at 37° C., ^33P-labeled HBV DNA was liberated via phenol/chloroform extraction The nucleic acids were finally precipitated with equal volumes 5M NH4-acetate and 2.5 volumes 100% EtOH and separated on a 1% native agarose gel in Tris-borate buffer. Gels were either fixed with 7% TCA, then dried, or blotted onto positively charged nylon membrane (Pall Biodyne Plus Cat#60406) overnight at room temperature via capillary transfer in 0.4 N NaOH. Dried gels/membranes were exposed to a phosphoimager screen (Molecular Dynamics) overnight at room temperature, then scanned (Storm 860, Molecular Dynamics) and quantitated with ImageQuant (Molecular Dynamics) software.
(§4) 12-well Biocoat collagen I plates (Becton Dickinson Cat#35-4500) are seeded with cells at a density of 0.5-1×10^6 cells per well in 2 ml DMEM containing 5% FBS, 2 mM L-glutamine, 100 I.U. penicillin/100 μg/mL streptomycin, and 0.5 mg/mL G-418.
(§5) Drug dilutions are prepared freshly in 100% DMSO as 200× stocks. For each experiment, 4 aliquots of each drug dilution series are stored at −20° C. until used. Once cells reach confluency, drug treatment is initiated by adding 10 μL of drug dilution into 2 ml of fresh DMEM+5% FBS. […] The no-drug control well receives only 10 μl of DMSO. Cells are treated every other day with 2 mL of fresh drug/medium for a total of 8 days. Cell lysates are then collected on day 10 as described below:
(§6) Aspirate media and rinse cell monolayer carefully once with 1 mL of PBS.
(§7) Add 1 ml of lysis buffer (50 mM Tris-HCl pH 7.5/150 mM NaCl/5 mM MgCl2/0.2% NP-40). Store on ice for 30 min to 4 h.
(§8) Harvest lysed cells. Transfer to 1.5 ml microfuge tubes.
(§9) Clarify lysate by spinning for 5 min at RT and 14,000 rpm.
(§10) Transfer clarified lysate to fresh tubes. Snap-freeze on dry-ice and store at −80° C. until ready to continue with endogenous polymerase assays essentially as described above.
(§11) EC50's were generated from the phosphorimager data by curve fitting using Xlfit software.

[7] = test system: M552I mutant HBV, cell line I2; experiment: as above; assay type: cell-based, hepatitis B virus; settings: Hepatitis B virus, HepG2, M552I single mutant
Method: as §2, §3, §4, §5, §6, §7, §8, §9, §10, §11

[8] = test system: L515M/M552I mutant HBV, cell line MI4; experiment: as above; assay type: cell-based, hepatitis B virus; settings: Hepatitis B virus, HepG2, L515M/M552I double mutant
Method: as §2, §3, §4, §5, §6, §7, §8, §9, §10, §11

[9] = test system: L515M/M552V mutant HBV, cell line MV5/B3; experiment: as above; assay type: cell-based, hepatitis B virus; settings: Hepatitis B virus, HepG2, L515M/M552V, cell line MV5/B3; mean ± SD of three to four experiments; read-out: EC50
Method: as §2, §3, §4, §5, §6, §7, §8, §9, §10, §11

[10] = test system: human plasma proteins; assay type: in vitro ADME; settings: ex vivo, ultrafiltration
[11] = test system: Human DNA polymerases and mitochondrial function; experiment: Effect on human DNA polymerases and mitochondrial function in vitro
From the text: as §1

[12] = Single-dose bioavailability of L-dC in the woodchuck; assay type: in vivo; settings: for half-life: in vivo, read-out: t1/2 of L-dC (converted); for bioavailability: po, 10 mg/kg, L-dC 10 mg/kg PO vs IV; for AUC(0-t): read-out: AUCt→24 of L-dC
Method: Plasma drug levels, CL, ty, and F were determined.

[13] = in vivo; settings: Sprague-Dawley, rat, 10 mg/kg
Method: as §13

[14] = rhesus monkey, blood, po, 10 mg/kg
[15] = plasma, L-dC 10 mg/kg single IV dose, mean
[16] = plasma, L-dC 10 mg/kg single PO dose, mean

In the case of Nc1ccn([C@@H]2CC(O)[C@H](CO)O2)c(=O)n1 (stereo partly drawn) [L-dC, 2′-Deoxy-β-L-cytidine], the cytotoxicity in words [1] is reported as “non-cytotoxic”, the half-life [2] is reported as 3.34 h and the “L-dC as share of drug excreted in the urine” value ([3]; L-dC 10 mg/kg oral) is reported as ~77%. The “administered oral dose recovered in urine after 48 hours” value ([3]; L-dC 10 mg/kg oral) was 15%, the “administered oral dose recovered in urine within 8 hours” value ([3]; L-dC 10 mg/kg oral) was “Approximately 8.5%” and the CL renal ([3]; rhesus monkey, blood and urine, po, 10 mg/kg) was 4.55 mL/min/kg. It also gave an AUC [3, 14] of 12.2 µM·h, a Cmax [3, 14] of 3.23 µM and a Tmax [3, 14] of 0.83 h. For the same compound, the bioavailability [3, 14] was ~16%, the bioavailability ([4]; oral) was 15.4% and the AUC(0-t) ([4]; po) was 4.77 µM·h. It also gave a Cmax ([4]; po) of 1.5 µM, a Tmax ([4]; po) of 1 h and an AUC(0-t) ([4]; female, iv) of 30.1 µM·h. It also gave a Cmax ([4]; female, iv) of 91.1 µM, a Tmax ([4]; female, iv) of 0 h and a Vd ([4]; female, iv) of 2.53 L/kg. For the same compound, the clearance ([4]; female, iv) was 24 mL/min/kg, the bioavailability [5] was 16.4 ± 5% and the “activity against the mutant, in words” value [6] was “retained almost complete activity”. The EC50 [7] was > 1000 µM, the EC50 [8] was > 1000 µM and the EC50 [9] was ~780 µM. For the same compound, the “binding to human plasma proteins” value [10] was 19.7%, the “effect on human DNA polymerases and mitochondrial function” value [11] was “not affected” and the half-life ([12]; L-dC 10 mg/kg single IV dose, mean) was 2.85 h. The half-life ([12]; L-dC 10 mg/kg single PO dose, mean) was 5.22 h, the bioavailability ([12]; plasma, read-out: oral bioavailability (F), average) was 9.57% and the bioavailability ([12]; plasma, read-out: oral bioavailability, range of animals) was 5.6 to 16.9%. The Tmax ([12]; plasma, L-dC 10 mg/kg single IV dose) was 0 h, the Vd [12, 15] was 1.17 L/kg and the clearance [12, 15] was 6.5 mL/min/kg. The Cmax ([12]; plasma, L-dC 10 mg/kg single IV dose, mean, at 2 minutes post-dose) was 112 µM, the AUC(0-t) ([12]; plasma, L-dC 10 mg/kg single IV dose, n=3, t = 0.033 hours, mean) was 174 µM·h and the Cmax [12, 16] was 1.37 µM. For the same compound, the Tmax [12, 16] was 3 h, the AUC(0-t) ([12]; plasma, L-dC 10 mg/kg single PO dose, n=3, t = 0.25 hours, mean) was 11.3 µM·h and the half-life ([13]; po) was 2.52 h. It also gave a half-life ([13]; female, iv) of 1.21 h.
